The values below come from patent publication US9938301B2, “Dihydropyrimido fused ring derivative as HBV inhibitor” (QILU PHARMACEUTICAL CO., LTD., priority 2014, dated 2018).

The first experiment concerns HBV DNA in HepG2.2.15 cells. Nature of the experiment: HBV in vitro assay quantitive qPCR test. The format is cell-based. The note with it: Hepatitis B virus; qPCR assay, HepG2.2.15 cells; read-out: Concentration for 50% inhibition of HBV (EC50)value. As to the method: • 1 Purpose of the test: • The content of HBV DNA in HepG2.2.15 cells was detected by real time quantitive qPCR test to evaluate an inhibitory action of the compound on HBV with an EC50 value of the compound as an indicator. • 2 Experimental materials: • 2.1 Cell lines: HepG2.2.15 Cells • HepG2.2.15 cell culture media (DMEM/F12, Invitrogen-11330057; 10% serum, Invitrogen-10099141; 100 units/ml Penicillin and 10 μg/ml Streptomycin, Invitrogen-15140122; 1% non-essential amino acid, Invitrogen-1140076; 2 mM L-GLUTAMINE, Invitrogen-25030081; 300 μg/ml Geneticin, Invitrogen-10131027 • 2.2 Reagents: • trypsin (Invitrogen-25300062) • DPBS (Hyclone-SH30028.01B) • DMSO (Sigma-D2650-100ML) • High-Throughput DNA Purification Kit (QIAamp 96 DNA Blood Kit, Qiagen-51162) • Quantitative Fast Start Universal Probe Reagent (FastStart Universal Probe Master, Roche-04914058001) • 2.3 Materials and Instruments: • 96-well cell culture plate (Corning-3599) • CO2 Incubator (HERA-CELL-240) • Optical Sealing Membrane (ABI-4311971) • Quantitative PCR 96-well Plate (Applied Biosystems-4306737) • Fluorescent Quantitative PCR Instrument (Applied Biosystems-7500 real time PCR system) • 3. Testing steps and Methods: • 3.1 HepG2.2.15 cells (4×10^4 cells/well) were planted into a 96-well plate, and at 37° C., 5% CO2 cultured overnight. • 3.2 On Day 2, the compounds were diluted in totally 8 concentrations with a dilution gradient of three times. The compounds at different concentrations were added into the culture wells in duplicate. The final concentration of DMSO in the culture media was 1%. 1 μM GLS4 was used as 100% inhibition control; 1% DMSO as 0% inhibition control. • 3.3 On Day 5, replacing with the fresh culture media containing the compound was performed. • 3.4 On Day 8, the culture media in the culture wells was collected, and DNA was extracted with a High-Throughput DNA Purification Kit (Qiagen-51162), See Specification of the product for specific steps. • 3.5 Preparation of PCR Reaction Mixture was shown in Table 1:
• 3.6 To each well of a 96-well PCR plate was added 15 μl reaction mixture, and then to each well was added 10 μl sample DNA or HBV DNA standard. • 3.7 The reaction conditions of PCR were: heating at 95° C. for 10 minutes; then at 95° C. denaturing for 15 seconds, and at 60° C. extending for 1 minute, totally 40 cycles. • 3.8 Data Analysis: • 3.8.1 The inhibition percentage was calculated: % Inh.=[1−(DNA copy number in sample−DNA copy number in 1 μM GLS4)/(DNA copy number in DMSO control−DNA copy number in 1 μM GLS4)]×100. • 3.8.2 Calculating EC50: the concentration of the compound for 50% inhibition of HBV (EC50) was calculated by using GraphPad Prism Software. • 4 Testing Results • The testing results were shown in Table 3: […]
On the technique in general: In qPCR the cycle at which signal appears reflects the starting amount.
`COC(=O)C1=C2C[C@@H](NS(C)(=O)=O)CN2C(c2nccs2)=N[C@H]1c1ccc(F)cc1Cl` [Example 181]: the EC50 was under 100 nM.
Turning to `COC(=O)C1=C2C[C@H](N(CC#N)S(C)(=O)=O)CN2C(c2nccs2)=N[C@H]1c1ccc(F)cc1Cl` [Example 182], the EC50 is under 100 nM.
Same read-out and setting: in the case of `CCN([C@H]1CC2=C(C(=O)OC)[C@H](c3ccc(F)cc3Cl)N=C(c3nccs3)N2C1)S(C)(=O)=O` [Example 183] it was under 100 nM; in that of `COC(=O)C1=C2C[C@H](N(C(C)C)S(C)(=O)=O)CN2C(c2nccs2)=N[C@H]1c1ccc(F)cc1Cl` [Example 184], 100 to 500 nM.
Still for that read-out and setting: the result for `COC(=O)C1=C2C[C@H](NS(=O)(=O)OC)CN2C(c2nccs2)=N[C@H]1c1ccc(F)cc1Cl` [Example 185] reads under 100 nM; that for `COC(=O)C1=C2C[C@H](N(CC(=O)O)S(C)(=O)=O)CN2C(c2nccs2)=N[C@H]1c1ccc(F)cc1Cl` [Example 186], 1000 to 5000 nM; that for `COC(=O)C1=C2C[C@H](N3CCCS3(=O)=O)CN2C(c2nccs2)=N[C@H]1c1ccc(F)cc1Cl` [Example 187], under 100 nM.
On the same count and under the same terms, in the case of `COC(=O)C1=C2C[C@H](N(CCO)S(C)(=O)=O)CN2C(c2nccs2)=N[C@H]1c1ccc(F)cc1Cl` [Example 188] it was under 100 nM.
For the compound `COC(=O)C1=C2C[C@H](NS(=O)(=O)c3ccccc3)CN2C(c2nccs2)=N[C@H]1c1ccc(F)cc1Cl` [Example 189], the EC50 is under 100 nM.
Still for that read-out and setting: in the case of `COC(=O)C1=C2C[C@H](NS(C)(=O)=O)CN2C(c2ncc(F)cc2F)=N[C@H]1c1ccc(F)cc1Cl` [Example 191] it was under 100 nM; in that of `COC(=O)C1=C2C[C@H](N(C)S(N)(=O)=O)CN2C(c2nccs2)=N[C@H]1c1ccc(F)cc1Cl` [Example 192], under 100 nM; in that of `COC(=O)C1=C2C[C@H](NS(N)(=O)=O)CN2C(c2nccs2)=N[C@H]1c1ccc(F)c(F)c1F` [Example 193], under 100 nM.
The same measure, in the same setting: in the case of `COC(=O)C1=C2C[C@H](NS(C)(=O)=O)CN2C(c2nccs2)=N[C@H]1c1ccc(F)cn1` [Example 194] it was 1000 to 5000 nM.
Regarding `[H]/N=C(\N)N[C@H]1CC2=C(C(=O)OC)[C@H](c3ccc(F)cc3Cl)N=C(c3nccs3)N2C1` [Example 195], the EC50 fell in the range of 1000 to 5000 nM.
On the same count and under the same terms, in the case of `COC(=O)C1=C2C[C@H](N(O)S(C)(=O)=O)CN2C(c2nccs2)=N[C@H]1c1ccc(F)cc1Cl` [Example 196] it was 1000 to 5000 nM; in that of `COC(=O)C1=C2C[C@H](NS(N)(=O)=O)CN2C(c2nccs2)=N[C@@H]1c1ccc(F)c(F)c1Cl` [Example 197], 1000 to 5000 nM; in that of `COC(=O)C1=C2C[C@H](NS(N)(=O)=O)CN2C(c2nccs2)=N[C@H]1c1ccc(F)c(F)c1Cl` [Example 198], under 100 nM.
The same measure, in the same setting: in the case of `COC(=O)C1=C2C[C@H](NS(=O)(=O)c3cccnc3)CN2C(c2nccs2)=N[C@H]1c1ccc(F)cc1Cl` [Example 199] it was under 100 nM.

The same experiment, now with this note: Hepatitis B virus; summary list of target compounds, Examples 166-220 (values of Table 3); HepG2.2.15 cells; read-out: BIOACTIVITY (inhibitory actions on HBV DNA, EC50).
For `COC(=O)C1=C2C[C@@H](NS(C)(=O)=O)CN2C(c2nccs2)=N[C@H]1c1ccc(F)cc1Cl` [Example 181], the EC50 is under 100 nM.
In the case of `COC(=O)C1=C2C[C@H](N(CC#N)S(C)(=O)=O)CN2C(c2nccs2)=N[C@H]1c1ccc(F)cc1Cl` [Example 182], the EC50 was under 100 nM.
Same read-out and setting: the result for `CCN([C@H]1CC2=C(C(=O)OC)[C@H](c3ccc(F)cc3Cl)N=C(c3nccs3)N2C1)S(C)(=O)=O` [Example 183] reads under 100 nM.
Still for that read-out and setting: the result for `COC(=O)C1=C2C[C@H](N(C(C)C)S(C)(=O)=O)CN2C(c2nccs2)=N[C@H]1c1ccc(F)cc1Cl` [Example 184] reads 100 to 500 nM.
Still for that read-out and setting: the result for `COC(=O)C1=C2C[C@H](NS(=O)(=O)OC)CN2C(c2nccs2)=N[C@H]1c1ccc(F)cc1Cl` [Example 185] reads under 100 nM.
`COC(=O)C1=C2C[C@H](N(CC(=O)O)S(C)(=O)=O)CN2C(c2nccs2)=N[C@H]1c1ccc(F)cc1Cl` [Example 186]: the EC50 was in the range of 1000 to 5000 nM.
Still for that read-out and setting: in the case of `COC(=O)C1=C2C[C@H](N3CCCS3(=O)=O)CN2C(c2nccs2)=N[C@H]1c1ccc(F)cc1Cl` [Example 187] it was under 100 nM; in that of `COC(=O)C1=C2C[C@H](N(CCO)S(C)(=O)=O)CN2C(c2nccs2)=N[C@H]1c1ccc(F)cc1Cl` [Example 188], under 100 nM.
Same read-out and setting: in the case of `COC(=O)C1=C2C[C@H](NS(=O)(=O)c3ccccc3)CN2C(c2nccs2)=N[C@H]1c1ccc(F)cc1Cl` [Example 189] it was under 100 nM; in that of `COC(=O)C1=C2C[C@H](NS(C)(=O)=O)CN2C(c2ncc(F)cc2F)=N[C@H]1c1ccc(F)cc1Cl` [Example 191], under 100 nM; in that of `COC(=O)C1=C2C[C@H](N(C)S(N)(=O)=O)CN2C(c2nccs2)=N[C@H]1c1ccc(F)cc1Cl` [Example 192], under 100 nM.
Still for that read-out and setting: in the case of `COC(=O)C1=C2C[C@H](NS(N)(=O)=O)CN2C(c2nccs2)=N[C@H]1c1ccc(F)c(F)c1F` [Example 193] it was under 100 nM; in that of `COC(=O)C1=C2C[C@H](NS(C)(=O)=O)CN2C(c2nccs2)=N[C@H]1c1ccc(F)cn1` [Example 194], 1000 to 5000 nM.
Take `[H]/N=C(\N)N[C@H]1CC2=C(C(=O)OC)[C@H](c3ccc(F)cc3Cl)N=C(c3nccs3)N2C1` [Example 195]: the EC50 was 1000 to 5000 nM.
Take `COC(=O)C1=C2C[C@H](N(O)S(C)(=O)=O)CN2C(c2nccs2)=N[C@H]1c1ccc(F)cc1Cl` [Example 196]: the EC50 was in the range of 1000 to 5000 nM.
On the same count and under the same terms, in the case of `COC(=O)C1=C2C[C@H](NS(N)(=O)=O)CN2C(c2nccs2)=N[C@@H]1c1ccc(F)c(F)c1Cl` [Example 197] it was 1000 to 5000 nM.
Still for that read-out and setting: in the case of `COC(=O)C1=C2C[C@H](NS(N)(=O)=O)CN2C(c2nccs2)=N[C@H]1c1ccc(F)c(F)c1Cl` [Example 198] it was under 100 nM; in that of `COC(=O)C1=C2C[C@H](NS(=O)(=O)c3cccnc3)CN2C(c2nccs2)=N[C@H]1c1ccc(F)cc1Cl` [Example 199], under 100 nM.
